Results published in patent publication US9497966B2, “Pesticidal compositions and related methods” (DOW AGROSCIENCES LLC, priority 2013, dated 2016).

What was measured:
[1] = test system: Sweetpotato Whitefly-Crawler (Bemisia tabaci) (WF) (BEMITA); assay: Insecticidal test for Sweetpotato Whitefly-Crawler in foliar spray assay on cotton plants; format: in vivo; conditions: 216 h, 200 ppm foliar spray on cotton, graded after 9 days, Abbott-corrected % control, read-out: % Control (or Mortality) rating, WF
Procedure: Example B: Insecticidal Test for Sweetpotato Whitefly-Crawler (Bemisia tabaci) (WF) (BEMITA) in Foliar Spray Assay
Cotton plants (Gossypium hirsutum) grown in 3-inch pots, with 1 small (4-5 cm) true leaves, were used as test substrate. The plants were infested with 200-400 whitefly eggs 4-5 days prior to chemical application. Four pots with individual plants were used for each treatment. Test compounds (2 mg) were dissolved in 1 mL of acetone solvent, forming stock solutions of 2000 ppm test compound. The stock solutions were diluted 10× with 0.025% Tween 20 in H2O (diluents) to obtain the solution at 200 ppm test compound. A hand-held aspirator-type sprayer was used for spraying a solution to both sides of cotton leaves until runoff. Reference plants (solvent check) were sprayed with the diluent only containing 10% by volume of acetone solvent. Treated plants were held in a holding room for 9 days at approximately 25° C. and ambient relative humidity (RH) prior to grading. Evaluation was conducted by counting the number of live 3-4 nymph stage per plant under a microscope. Percent control was measured by using Abbott's correction formula (W. S. Abbott, “A Method of Computing the Effectiveness of an Insecticide,” J. Econ. Entomol. 18 (1925), pp. 265-267) as follows. Corrected % Control=100*(X−Y)/X • where • X=No. of live nymphs on solvent check plants and • Y=No. of live nymphs on treated plants.
Biological Data for Green Peach Aphid (MYZUPE) and Sweetpotato Whitefly-crawler (WF) (BEMITA)” (See Table Section).

[2] = test system: Green Peach Aphid (Myzus persicae) (GPA) (MYZUPE); assay: Bioassay for Green Peach Aphid, foliar spray on infested cabbage seedlings; format: in vivo; conditions: 72 h, 200 ppm foliar spray on cabbage, graded after three days, Abbott-corrected % control, read-out: % Control (or Mortality) rating, GPA
Procedure: Example A: Bioassays for Green Peach Aphid (Myzus persicae) (GPA) (MYZUPE)
Cabbage seedlings grown in 3-inch pots, with 2-3 small (3-5 cm) true leaves, were used as test substrate. The seedlings were infested with 20-50 GPA (wingless adult and nymph stages) one day prior to chemical application. Four pots with individual seedlings were used for each treatment. Test compounds (2 mg) were dissolved in 2 mL of acetonemethanol (1:1) solvent, forming stock solutions of 1000 ppm test compound. The stock solutions were diluted 5× with 0.025% Tween 20 in H2O to obtain the solution at 200 ppm test compound. A hand-held aspirator-type sprayer was used for spraying a solution to both sides of […] leaves until runoff. Reference plants (solvent check) were sprayed with the diluent only containing 20% by volume of acetonemethanol (1:1) solvent. Treated plants were held in a holding room for three days at approximately 25° C. and ambient relative humidity (RH) prior to grading. Evaluation was conducted by counting the number of live aphids per plant under a microscope. Percent control was measured by using Abbott's correction formula (W. S. Abbott, “A Method of Computing the Effectiveness of an Insecticide,” J. Econ. Entomol. 18 (1925), pp. 265-267) as follows. Corrected % Control=100*(X−Y)/X • where • X=No. of live aphids on solvent check plants and • Y=No. of live aphids on treated plants The results are indicated in the table entitled “TABLE 2. Biological Data for Green Peach Aphid (MYZUPE) and Sweetpotato Whitefly-crawler (WF) (BEMITA)” (See Table Section).

SMILES | mortality at 200 ppm [1] | mortality at 200 ppm [2] | melting point
CCON=C(CSCC1CC1(F)F)C(=O)N(CC)c1cn(-c2cccnc2)nc1Cl (centres unmarked) [Compound F11, N-(3-Chloro-1-(pyridin-3-yl)-1H-pyrazol-4-yl)-3-(((2,2-difluorocyclopropyl)methyl)thio)-2-(ethoxyimino)-N-ethylpropanamide] | 80 to 100% | 80 to 100% | 
C#CCN(C(=O)C(CSCCC(F)(F)F)=NOC)c1cn(-c2cccnc2)nc1Cl [Compound F21, N-(3-Chloro-1-(pyridin-3-yl)-1H-pyrazol-4-yl)-2-(methoxyimino)-N-(prop-2-yn-1-yl)-3-((3,3,3-trifluoropropyl)thio)propanamide] | 80 to 100% | 80 to 100% | 
CCN(C(=O)C(CSCCC(F)(F)F)=NOC)c1cn(-c2cccnc2)nc1Cl [Compound F14, N-(3-chloro-1-(pyridin-3-yl)-1H-pyrazol-4-yl)-N-ethyl-2-(methoxyimino)-3-((3,3,3-trifluoropropyl)thio)propanamide] | 80 to 100% | 80 to 100% | 
CCON=C(CSCCC(F)(F)F)C(=O)N(CC)c1cn(-c2cccnc2)nc1Cl [Compound F24, N-(3-chloro-1-(pyridin-3-yl)-1H-pyrazol-4-yl)-2-(ethoxyimino)-N-ethyl-3-((3,3,3-trifluoropropyl)thio)propanamide] | 80 to 100% | 80 to 100% | 
CCN(C(=O)C(CS(=O)(=O)CCC(F)(F)F)=NOC)c1cn(-c2cccnc2)nc1Cl [Compound F8, N-(3-Chloro-1-(pyridin-3-yl)-1H-pyrazol-4-yl)-N-ethyl-2-(methoxyimino)-3-((3,3,3-trifluoropropyl)sulfonyl)propanamide] | 80 to 100% | 80 to 100% | 
CON=C(C[S+]([O-])CCC(F)(F)F)C(=O)N(C)c1cn(-c2cccnc2)nc1Cl (centres unmarked) [Compound P5, N-(3-chloro-1-(pyridin-3-yl)-1H-pyrazol-4-yl)-2-(methoxyimino)-N-methyl-3-((3,3,3-trifluoropropyl)sulfinyl)propanamide] | 80 to 100% | 80 to 100% | 
CCN(C(=O)C(CSCC1CC1(F)F)=NOC)c1cn(-c2cccnc2)nc1Cl (centres unmarked) [Compound F5] | 80 to 100% | 80 to 100% | 
C#CCN(C(=O)C(CSC(c1ccccc1)(c1ccccc1)c1ccccc1)=NOC)c1cn(-c2cccnc2)nc1Cl [Compound F4, N-(3-chloro-1-(pyridin-3-yl)-1H-pyrazol-4-yl)-2-(methoxyimino)-N-(prop-2-yn-1-yl)-3-(tritylthio)propanamide] | 0 to 80% | < 0% | 
C#CCN(C(=O)C(CS)=NOCC)c1cn(-c2cccnc2)nc1Cl [Compound F7, N-(3-Chloro-1-(pyridin-3-yl)-1H-pyrazol-4-yl)-2-(ethoxyimino)-3-mercapto-N-(prop-2-yn-1-yl)propanamide] | < 0% | 80 to 100% | 
C#CCN(C(=O)C(CS)=NOC)c1cn(-c2cccnc2)nc1Cl [Compound F23, N-(3-Chloro-1-(pyridin-3-yl)-1H-pyrazol-4-yl)-3-mercapto-2-(methoxyimino)-N-(prop-2-yn-1-yl)propanamide] | 0 to 80% | 0 to 80% | 
CON=C(CSCCC(F)(F)F)C(=O)N(C)c1cn(-c2cccnc2)nc1Cl [Compound P4, N-(3-chloro-1-(pyridin-3-yl)-1H-pyrazol-4-yl)-2-(methoxyimino)-N-methyl-3-((3,3,3-trifluoropropyl)thio)propanamide] | 80 to 100% | 80 to 100% | 
CCN(C(=O)C(CS(=O)(=O)CC1CC1(F)F)=NOC)c1cn(-c2cccnc2)nc1Cl (centres unmarked) [Compound F3] | 80 to 100% | 80 to 100% | 
C#CCN(C(=O)C(CSCCC(F)(F)F)=NOCC)c1cn(-c2cccnc2)nc1Cl [Compound F16, N-(3-Chloro-1-(pyridin-3-yl)-1H-pyrazol-4-yl)-2-(ethoxyimino)-N-(prop-2-yn-1-yl)-3-((3,3,3-trifluoropropyl)thio)propanamide] | 80 to 100% | 80 to 100% | 
CON=C(CS)C(=O)N(C)c1cn(-c2cccnc2)nc1Cl [FA2, N-(3-chloro-1-(pyridin-3-yl)-1H-pyrazol-4-yl)-3-mercapto-2-(methoxyimino)-N-methylpropanamide] |  |  | 116 to 121 °C
CCON=C(CS)C(=O)N(CC)c1cn(-c2cccnc2)nc1Cl [Compound F20, N-(3-chloro-1-(pyridin-3-yl)-1H-pyrazol-4-yl)-2-(ethoxyimino)-N-ethyl-3-mercaptopropanamide] | 0 to 80% | 80 to 100% | 
